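Test compounds were applied to cells in 96-well plates for 48 hours at 5 doses. Here, GI50 denotes the concentration required for 50% inhibition of growth. TGI is the concentration that stops growth completely.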
What was measured:
Assay in all cases: NCI-60 cell line screen, 48 h
COLO 205 colon = test system: COLO 205 colon
CAKI-1 renal = test system: CAKI-1 renal
SW-620 colon = test system: SW-620 colon
SK-MEL-2 melanoma = test system: SK-MEL-2 melanoma
SK-MEL-5 melanoma = test system: SK-MEL-5 melanoma
SF-268 CNS = test system: SF-268 CNS
HT29 colon = test system: HT29 colon
UACC-257 melanoma = test system: UACC-257 melanoma
OVCAR-5 ovarian = test system: OVCAR-5 ovarian
SN12C renal = test system: SN12C renal

SMILES	GI50 (COLO 205 colon)	TGI (COLO 205 colon)	GI50 (CAKI-1 renal)	TGI (CAKI-1 renal)	GI50 (SW-620 colon)	TGI (SW-620 colon)	GI50 (SK-MEL-2 melanoma)	TGI (SK-MEL-2 melanoma)	GI50 (SK-MEL-5 melanoma)	TGI (SK-MEL-5 melanoma)	GI50 (SF-268 CNS)	TGI (SF-268 CNS)	GI50 (HT29 colon)	TGI (HT29 colon)	TGI (UACC-257 melanoma)	TGI (OVCAR-5 ovarian)	TGI (SN12C renal)	GI50 (UACC-257 melanoma)	GI50 (OVCAR-5 ovarian)	GI50 (SN12C renal)
Cc1ccc(N(CC(=O)Nc2ccc(S(=O)(=O)N3CCC(N4CCCC4)CC3)cc2)S(=O)(=O)c2ccc(Cl)cc2)cc1	1.75 µM	3.39 µM	1.65 µM	3.31 µM	1.66 µM	3.44 µM	1.95 µM	3.92 µM	1.73 µM	3.14 µM	1.61 µM	3.29 µM	1.87 µM	3.68 µM						
O=C1Nc2ccc(Cl)cc2/C1=C\c1c(Cl)nc2sccn12				> 100 µM		> 100 µM		> 100 µM				> 100 µM			> 100 µM	78.2 µM	> 100 µM			
C[N+]1(CCCl)CC[N+](C)(CCCl)CC1 (stereo not given)		> 100 µM		> 100 µM		> 100 µM		> 100 µM		> 100 µM		> 100 µM		> 100 µM	> 100 µM	> 100 µM	> 100 µM			
CCOC(=O)CC1(c2cccc3ccccc23)OC(=O)c2ccccc21 (stereo not given)		98.5 µM		> 100 µM		> 100 µM		> 100 µM		63.8 µM		> 100 µM		> 100 µM	> 100 µM	> 100 µM	> 100 µM			
O=C(Nc1ccc(-n2ccc3c(NC(=O)c4ccccc4)ncnc32)cc1)Nc1cccc(Cl)c1Cl	1.75 µM	7.97 µM	3.84 µM	24.9 µM	0.998 µM	2.36 µM	1.33 µM	3.88 µM	1.35 µM	9.99 µM	1.1 µM	3.13 µM	0.808 µM	2.11 µM	7.7 µM	2.84 µM	2.32 µM	2.15 µM	1.04 µM	1.08 µM
O=C(O)CC1NCc2cc3ccccc3nc21 (stereo not given)		> 100 µM		> 100 µM		> 100 µM		> 100 µM		> 100 µM		> 100 µM		> 100 µM	> 100 µM	> 100 µM	> 100 µM			
O=C(O)/C(Cc1ccc([N+](=O)[O-])cc1)=N\O		> 100 µM		> 100 µM		> 100 µM		> 100 µM		> 100 µM		> 100 µM		> 100 µM	> 100 µM	> 100 µM	> 100 µM			
CC(=O)NC1=C[C@@H]([C@H]2COC(C)(C)O2)OC1=O		> 100 µM		> 100 µM		> 100 µM		> 100 µM		> 100 µM		> 100 µM		> 100 µM	> 100 µM	> 100 µM	> 100 µM			
CC(C)C(N)=O		> 5000 µM		> 5000 µM		> 5000 µM		> 5000 µM		> 5000 µM		> 5000 µM		> 5000 µM	> 5000 µM	> 5000 µM	> 5000 µM			
C=C(OC1C(C)=C2C(C1OC(=O)CCCCCCC)C(C)(OC(C)=O)CC(OC(=O)CCC)C1(O)C2OC(=O)C1(C)O)/C(C)=C/C (stereo not given)	< 0.0001 µM	0.101 µM	0.000475 µM	0.0615 µM	< 0.0001 µM	2.05 µM	< 0.0001 µM	0.0642 µM	< 0.0001 µM		< 0.0001 µM	16.7 µM	< 0.0001 µM	1.8 µM	11.9 µM	8.64 µM	1.91 µM	0.000269 µM	< 0.0001 µM	0.0105 µM
CCCCCCCCCCCCOCCCOP(=O)([O-])OCC[N+](C)(C)C		31.7 µM		47.5 µM		> 100 µM		> 100 µM		> 71.3 µM		86 µM		61.7 µM	98.9 µM	> 100 µM	> 76.7 µM			
COC(=O)c1cnc(Cl)cn1		> 100 µM		37.5 µM		> 100 µM		> 100 µM		> 100 µM		> 100 µM		> 100 µM	> 100 µM	> 100 µM	> 100 µM			
Nc1nc(N)c2cc(NCc3ccc(Cl)c(Cl)c3)ccc2n1	1.32 µM	2.6 µM	1.37 µM	2.71 µM	0.431 µM	1.59 µM	1.82 µM	3.37 µM	1.5 µM	2.83 µM	1.58 µM	3.12 µM	0.813 µM	2.05 µM	3.22 µM	2.19 µM	2.89 µM	1.71 µM	1.02 µM	1.5 µM

From PubChem BioAssay (NCI)
